As usually defined, the IC50 is the concentration that gives 50% inhibition. What is called inhibition is the change of the read-out against control, counted positive when it falls. A word on the Ki: it is a dissociation constant, usually derived from enzyme kinetics or from competition with a known ligand.

This note sets out measurements from patent US8383637B2, “2-amino-quinazoline derivatives useful as inhibitors of β-secretase (BACE)” (Jansssen Pharmaceutica N.V., priority 2004, dated 2013).

Holding throughout (type): biochemical
The target in assay [1] is T1, β-secretase(BACE) (Homo sapiens, UniProt P56817).
T1 construct: purchased Panvera
The assay is described as follows: BACE Assay-1 (MCA-substrate, IC50). The following applies: procedure of Example 158; read-out: IC50 μM (158). The procedure:
The following standards are reagents were used in this assay: Sodium Citrate trisodium salt dihydrate (Sigma), Citric Acid monohydrate (Merck), PEG8000 (Sigma), MCA-substrate (Bachem), β-secretase (BACE) (Panvera), 96-well plate zwart (Costar (Elscolab)), StatVal (Bachem).
The following standard assay buffer solution was prepared and used in this assay: 0.05 M, pH 5.0 mixture of sodium citrate trisodium salt dihydrate (9.56 g), citric acid monohydrate (3.68 g) and PEG8000 (0.50 g).
The MCA-substrate stock solution was prepared by mixing 10 mg MCA-substrate with 5 mL DMSO for a final solution concentration of 2.0 mg/mL. The substrate work solution was prepared by mixing 0.1 mL substrate in 1.90 mL assay buffer for a final concentration of 0.05 mM. The β-secretase (BACE) work solution was prepared by mixing 8 μL BACE in 2 mL assay buffer for a final concentration of 10 μg/mL.
The screen procedure for this assay was as follows. 60 μL of assay buffer was pippeted into each well of a 96-well plate. To each well was then pipetted 1 μL of test compound at the selected concentration. To each well was then added 20 μL of the β-secretase work solution and 20 μL of the MCA-substrate stock solution.
The procedure for the blank was as follows. 80 μL of assay buffer was pipetted into each well to be used as a blank control. To each well was then added 1 μL of DMSO and 20 μL of MCA-substrate solution in each well.
The procedure for the positive control was as follows. 60 μL of assay buffer was pipetted into each well to be used as a positive control. To each well was then added 1 μL of DMSO, 20 μL of BACE work solution and 20 μL of MCA-substrate stock solution.
For test compounds, measured at multiple concentrations, the measured T0 and T60 values were used to calculate an IC50 value using Graphpad Software (or PIR).

The target of assay [2] is T1, β-secretase(BACE). The assay is described as follows: BACE FS1% Inhibition Assay. The following applies: FS1 substrate, read-out: % Inhibition (FS); for inhibition at 0.3 µM: 0.3 μM test compound; for inhibition at 1 µM: 1 μM test compound; for inhibition at 3 µM: 3 μM test compound. In a few lines:
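Human BACE (4 μg/mL working solution) preincubated 20 min at room temperature with compound, then FS1 substrate (300 μg/mL working solution) added and incubated 1 h at room temperature. Percent inhibition calculated at each compound concentration against blank and vehicle controls.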

The target of assay [3] is T1, β-secretase(BACE). The assay is described as follows: BACE Assay-2 (FS1 substrate, IC50 and Ki). To be noted: procedure of Example 159, FS1 substrate; read-out: Ki μM (159).

Molecules are shown by their SMILES.

T1 sequence (P56817 46-501): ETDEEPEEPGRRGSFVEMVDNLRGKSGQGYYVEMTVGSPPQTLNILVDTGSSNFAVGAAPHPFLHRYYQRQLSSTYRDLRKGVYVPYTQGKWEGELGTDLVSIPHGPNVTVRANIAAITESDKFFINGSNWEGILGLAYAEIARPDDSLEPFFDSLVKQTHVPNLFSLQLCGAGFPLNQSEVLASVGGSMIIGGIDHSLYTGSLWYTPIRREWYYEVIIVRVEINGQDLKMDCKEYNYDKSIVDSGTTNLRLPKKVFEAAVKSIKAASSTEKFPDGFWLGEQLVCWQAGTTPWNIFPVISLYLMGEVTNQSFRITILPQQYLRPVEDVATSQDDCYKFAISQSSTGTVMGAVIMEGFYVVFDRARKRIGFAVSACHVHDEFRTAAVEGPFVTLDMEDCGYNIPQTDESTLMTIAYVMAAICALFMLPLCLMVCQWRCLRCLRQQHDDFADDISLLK

Turning to `CN(C(=O)CCN1Cc2cc(C(=O)c3ccc(F)cc3)ccc2N=C1N)C1CCCCC1` [Compound 2], the IC50 in assay [1] was determined as 26 µM.

With `CCN(C(=O)CCN1Cc2cc(C(=O)c3ccccc3)ccc2N=C1N)C1CCCCC1` [Compound 3], the IC50 in assay [1] was found to be 4 µM.

`COC(=O)[C@H]1CC[C@@H](N(C)C(=O)CC[C@@H](C2CCOCC2)N2Cc3cc(Oc4ccccc4)ccc3N=C2N)CC1` [Compound 744]: in assay [2], the inhibition at 0.3 µM worked out at 91%, the inhibition at 1 µM came out at 108% and the inhibition at 3 µM amounted to 112%. The Ki in assay [3] is 0.031 µM.

Consider `CN(C(=O)CC[C@@H](C1CCOCC1)N1Cc2cc(Oc3ccccc3)ccc2N=C1N)[C@H]1CC[C@H](C(=O)O)CC1` [Compound 746], for which, in assay [2], the inhibition at 0.3 µM was 85%, the inhibition at 1 µM turned out to be 104% and the inhibition at 3 µM was determined as 112%. In addition, in assay [3], the Ki worked out at 0.035 µM.

For `NC1=Nc2ccc(Oc3ccccc3)cc2CN1[C@@H](CCC(=O)N(CCO)[C@H]1CC[C@@H](C(=O)O)CC1)C1CCCCC1` [Compound 749, (S)-Enantiomer of 4-cis-[[4-(2-Amino-6-phenoxy-4H-quinazolin-3-yl)-4-cyclohexyl-butyryl]-(2-hydroxy-ethyl)-amino]-cyclohexanecarboxylic acid], in assay [2], the inhibition at 0.3 µM is 113%, the inhibition at 1 µM was 112% and the inhibition at 3 µM turned out to be 115%. The Ki in assay [3] is 0.017 µM.

For the molecule `NC1=Nc2ccc(Oc3ccccc3)cc2CN1[C@@H](CCC(=O)N(CCO)[C@H]1CC[C@@H](C(=O)O)CC1)C1CCOCC1` [Compound 750, (S)-Enantiomer of 4-cis-[[4-(2-Amino-6-phenoxy-4H-quinazolin-3-yl)-4-(tetrahydro-pyran-4-yl)-butyryl]-(2-hydroxy-ethyl)-amino]-cyclohexanecarboxylic acid], in assay [2], the inhibition at 0.3 µM was determined as 115%, the inhibition at 1 µM came to 114% and the inhibition at 3 µM is 116%. The Ki in assay [3] stood at 0.005 µM.

`NC1=Nc2ccc(Oc3ccccc3)cc2CN1[C@@H](CCC(=O)N(CCOCc1ccccc1)[C@H]1CC[C@@H](C(=O)O)CC1)C1CCOCC1` [Compound 751, (S)-enantiomer of 4-[[4-(2-Amino-6-phenoxy-4H-quinazolin-3-yl)-4-(tetrahydro-pyran-4-yl)-butyryl]-(2-benzyloxy-ethyl)-amino]-cyclohexanecarboxylic acid]: in assay [2], the inhibition at 0.3 µM amounted to 112%, the inhibition at 1 µM was 112% and the inhibition at 3 µM is 116%. The Ki in assay [3] stood at 0.025 µM.

`CN(C(=O)CC[C@@H](C1CCCCC1)N1Cc2c(cccc2Oc2ccccc2)N=C1N)C1CCCCC1` [Compound 753]: in assay [2], the inhibition at 0.3 µM is 13%, the inhibition at 1 µM came out at 47% and the inhibition at 3 µM was 93%. Besides, the inhibition constant (Ki) in assay [3] came to 0.656 µM.

For `COC(=O)[C@H]1CC[C@@H](N(C)C(=O)CC[C@@H](C2CCCCC2)N2Cc3cc(Oc4ccccc4)ccc3N=C2N)CC1` [Compound 761], in assay [2], the inhibition at 0.3 µM was 51%, the inhibition at 1 µM turned out to be 91% and the inhibition at 3 µM was found to be 112%. The Ki in assay [3] was determined as 0.175 µM.

In the case of `COC(=O)[C@H]1CC[C@@H](N(CCO)C(=O)CC[C@@H](C2CCCCC2)N2Cc3cc(Oc4ccccc4)ccc3N=C2N)CC1` [Compound 762], in assay [2], the inhibition at 0.3 µM turned out to be 74%, the inhibition at 1 µM stood at 102% and the inhibition at 3 µM worked out at 113%. Further, the Ki in assay [3] was 0.111 µM.

Regarding `CN(C(=O)CC[C@@H](C1CCCCC1)N1Cc2cc(Oc3ccccc3)ccc2N=C1N)[C@H]1CC[C@@H](C(N)=O)CC1` [Compound 764, 4-{[4-(2-Amino-6-phenoxy-4H-quinazolin-3-yl)-4S-cyclohexyl-butyryl]-methyl-amino}-S,R-cyclohexanecarboxylic acid amide], in assay [2], the inhibition at 0.3 µM is 87%, the inhibition at 1 µM was 110% and the inhibition at 3 µM was found to be 116%. Further, the Ki in assay [3] is 0.061 µM.

Regarding `NC1=Nc2ccc(Oc3ccccc3)cc2CN1[C@@H](CCC(=O)N(CC(=O)O)C1CCCCC1)C1CCCCC1` [Compound 768, {[4-(2-Amino-6-phenoxy-4H-quinazolin-3-yl)-4S-cyclohexyl-butyryl]-cyclohexyl-amino}-acetic acid], in assay [2], the inhibition at 0.3 µM worked out at 122%, the inhibition at 1 µM is 120% and the inhibition at 3 µM stood at 126%. Further, in assay [3], the inhibition constant (Ki) was 0.013 µM.

On to `NC1=Nc2ccc(Oc3ccccc3)cc2CN1[C@@H](CCC(=O)N[C@@H](CO)C(=O)O)C1CCOCC1` [Compound 771], for which, in assay [2], the inhibition at 0.3 µM amounted to 46%, the inhibition at 1 µM was 79% and the inhibition at 3 µM worked out at 105%. The Ki in assay [3] was found to be 0.173 µM.

`NC1=Nc2ccc(Oc3ccccc3)cc2CN1[C@@H](CCC(=O)N[C@H](CO)C(=O)O)C1CCOCC1` [Compound 773, 2-[4-(2-Amino-6-phenoxy-4H-quinazolin-3-yl)-4S-(tetrahydro-pyran-4-yl)-butyrylamino]-3R-hydroxy-propionic acid]: in assay [2], the inhibition at 0.3 µM was determined as 102%, the inhibition at 1 µM was 111% and the inhibition at 3 µM stood at 119%. The Ki in assay [3] is 0.028 µM.

On to `CC(C)(C)OC[C@@H](NC(=O)CC[C@@H](C1CCOCC1)N1Cc2cc(Oc3ccccc3)ccc2N=C1N)C(=O)O` [Compound 774, 2-[4-(2-Amino-6-phenoxy-4H-quinazolin-3-yl)-4S-(tetrahydro-pyran-4-yl)-butyrylamino]-3R-tert-butoxy-propionic acid], for which, in assay [2], the inhibition at 0.3 µM turned out to be 122%, the inhibition at 1 µM was found to be 120% and the inhibition at 3 µM came to 124%. Besides, the Ki in assay [3] was 0.003 µM.

Regarding `CN(C(=O)CCC(C1CCCCC1)N1Cc2cc(Oc3ccccc3)ccc2N=C1N)C1CCCC(C(=O)O)C1` (centres unmarked) [Compound 776], in assay [2], the inhibition at 0.3 µM was 41%, the inhibition at 1 µM was 95% and the inhibition at 3 µM turned out to be 117%. Further, the Ki in assay [3] was 0.107 µM.

With `COC(=O)[C@@H](COCc1ccccc1)N(C)C(=O)CC[C@@H](C1CCCCC1)N1Cc2cc(Oc3ccccc3)ccc2N=C1N` [Compound 779], in assay [2], the inhibition at 0.3 µM was found to be 102%, the inhibition at 1 µM worked out at 107% and the inhibition at 3 µM is 120%. For the same molecule, in assay [3], the Ki stood at 0.045 µM.

Consider `NC1=Nc2ccc(Oc3ccccc3)cc2CN1[C@@H](CCC(=O)N[C@@H](COCc1ccccc1)C(=O)O)C1CCOCC1` [Compound 782], for which, in assay [2], the inhibition at 0.3 µM is 104%, the inhibition at 1 µM was 107% and the inhibition at 3 µM came out at 113%. The Ki in assay [3] worked out at 0.015 µM.

Regarding `COC(=O)[C@@H](COCc1ccccc1)N(C)C(=O)CC[C@@H](C1CCOCC1)N1Cc2cc(Oc3ccccc3)ccc2N=C1N` [Compound 783], in assay [2], the inhibition at 0.3 µM amounted to 109%, the inhibition at 1 µM worked out at 110% and the inhibition at 3 µM was 121%. For the same molecule, in assay [3], the Ki came out at 0.301 µM.

Regarding `CN(C(=O)CC[C@@H](C1CCOCC1)N1Cc2cc(Oc3ccccc3)ccc2N=C1N)[C@H](COCc1ccccc1)C(=O)O` [Compound 784, 2-{[4-(2-Amino-6-phenoxy-4H-quinazolin-3-yl)-4S-(tetrahydro-pyran-4-yl)-butyryl]-methyl-amino}-3R-benzyloxy-propionic acid], in assay [2], the inhibition at 0.3 µM amounted to 107%, the inhibition at 1 µM is 108% and the inhibition at 3 µM is 120%. For the same molecule, in assay [3], the Ki worked out at 0.298 µM.

For `COC(=O)[C@H](COCc1ccccc1)NC(=O)CC[C@@H](C1CCOCC1)N1Cc2cc(Oc3ccccc3)ccc2N=C1N` [Compound 785], in assay [2], the inhibition at 0.3 µM came out at 71%, the inhibition at 1 µM turned out to be 91% and the inhibition at 3 µM came to 107%. Further, the Ki in assay [3] is 0.198 µM.

For `COC(=O)[C@H](COCc1ccccc1)N(C)C(=O)CC[C@@H](C1CCOCC1)N1Cc2cc(Oc3ccccc3)ccc2N=C1N` [Compound 786], in assay [2], the inhibition at 0.3 µM was 97%, the inhibition at 1 µM was 105% and the inhibition at 3 µM was 114%. For the same molecule, the Ki in assay [3] came out at 0.101 µM.

Turning to `NC1=Nc2ccc(Oc3ccccc3)cc2CN1[C@@H](CCC(=O)N(Cc1nnn[nH]1)C1CCCCC1)C1CCCCC1` [Compound 787, 4-(2-Amino-6-phenoxy-4H-quinazolin-3-yl)-4S,N-dicyclohexyl-N-(1H-tetrazol-5-ylmethyl)-butyramide], in assay [2], the inhibition at 0.3 µM is 108%, the inhibition at 1 µM was determined as 109% and the inhibition at 3 µM came out at 121%. Further, in assay [3], the Ki worked out at 0.038 µM.
